# Measurements: patent US6979686B1, “Substituted pyrazoles as p38 kinase inhibitors” (Pharmacia Corporation, priority 2001, dated 2005)
# pIC50: −log10 of the molar value. Where two headings read alike, the source gives them in different places.
# Tests used:
# [1] = tested on: TNF alpha, BALB/c mice injected with LPS; experiment: Mouse model of LPS-induced TNF alpha production; type: in vivo; conditions: for mLPS 8 h percent inhibition: Table 6, mouse LPS, head '8 h'; for inhibition in vivo at 30 mg/kg: Mus musculus, read-out: Mouse LPS Model % TNF inhib @ dose @ predose time; for inhibition in vivo at 30 mg/kg / Mouse LPS Model % TNF inhib @ dose @ predose time: 30 mpk oral gavage
# Description: Mouse Model of LPS-induced TNF Alpha Production:
# TNF alpha was induced in 10-12 week old BALB/c female mice by tail vein injection with 100 ng lipopolysaccharide (from S. Typhosa) in 0.2 ml saline. One hour later mice were bled from the retroorbital sinus and TNF concentrations in serum from clotted blood were quantified by ELISA.
# Efficacy was determined at each time point as percent inhibition of serum TNF levels relative to LPS injected mice that received vehicle only.
# In vivo assessment of the ability of the compounds to inhibit LPS-stimulated TNP release in the mouse is shown in the column identified as: • “Mouse LPS Model, % TNF inhib @ dose @ predose time” wherein in the dose is milligram per kilogram (mpk) administered by oral gavage and the predose time indicates the number of hours before LPS challenge when the compound is administered.
# [2] = tested on: TNF-α, U937 human histiocytic lymphoma cell line; experiment: LPS stimulation of TNF production by U937 cells; type: cell-based
# How it was run: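 U937 cells differentiated 24 h with 20 ng/ml PMA, rested 24-48 h, used at 2 million cells/ml. Compounds in 0.1% DMSO final; LPS (E. coli, 100 ng/ml final) stimulation for 4 h at 37° C. Released TNF-α measured by ELISA; IC50 (μM).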
# human p38 kinase alpha = target: T1, human p38 kinase alpha (Homo sapiens, UniProt Q16539); experiment: p38 kinase in vitro assay, phosphorylation of biotinylated PHAS-I with 32P-ATP; type: biochemical; conditions: for pIC50: read-out: P38 alpha kinase IC50; for P38 alpha kinase % inhib @ conc. (uM): @ 1.0 uM
# T1 construct: GST (N, cleaved yes); made in house; host or cells: E. coli DH10B
# [3] = Table 6, U937 cell assay, read-out: U937 IC50
# [4] = in vitro P38-alpha kinase inhibition
# T1 sequence (Q16539 whole entry): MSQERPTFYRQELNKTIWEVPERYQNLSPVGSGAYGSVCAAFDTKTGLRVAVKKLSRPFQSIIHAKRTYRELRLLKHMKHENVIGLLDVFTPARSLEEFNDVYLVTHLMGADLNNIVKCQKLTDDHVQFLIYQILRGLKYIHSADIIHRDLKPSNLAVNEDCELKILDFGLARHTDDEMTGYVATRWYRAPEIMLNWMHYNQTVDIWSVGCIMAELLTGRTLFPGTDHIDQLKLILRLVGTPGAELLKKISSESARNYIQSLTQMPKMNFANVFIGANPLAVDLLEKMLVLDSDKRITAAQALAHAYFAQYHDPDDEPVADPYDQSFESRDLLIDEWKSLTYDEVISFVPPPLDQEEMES
SMILES,"mLPS 8 h percent inhibition ([1]; dose 30, oral gavage)",further results
"Cn1cc(-c2ccnc(F)c2)c(-c2ccc(F)c(F)c2)n1 [Example A-260, 4-[3-(3,4-difluorophenyl)-1-methyl-1H-pyrazol-4-yl]-2-fluoropyridine]",47%,–
"CN(C)CCn1cc(-c2ccncc2)c(-c2ccc(F)cc2)n1 [Example A-261, 3-(4-fluorophenyl)-N,N-dimethyl-4-(4-pyridinyl)-1H-pyrazole-1-ethanamine]",48%,–
"CN(C)CCn1cc(-c2ccnc(NCc3ccc(F)cc3)c2)c(-c2ccc(F)cc2)n1 [Example A-274, 4-[1-[2-(dimethylamino)ethyl]-3-(4-fluorophenyl)-1H-pyrazol-4-yl]-N-[[4-fluorophenyl)methyl]-2-pyridinamine]",21%,–
"Fc1ccc(CNc2cc(-c3cn(CCN4CCOCC4)nc3-c3ccc(F)cc3)ccn2)cc1 [Example A-276, N-[(4-fluorophenyl)methyl]-4-[3(or 5)-(4-fluorophenyl)-1-[[2-(4-morpholinyl)ethyl]-1H-pyrazol-4-yl]-2-pyridinamine]",−24%,"pIC50 [2, 3]: 6.35"
"Fc1ccc(-c2n[nH]cc2-c2ccnc(NC3CCNCC3)c2)cc1 [Example A-277, 4-[3-(4-fluorophenyl)-1H-pyrazol-4-yl]-N-4-piperadinyl-2-pyridinamine]",33%,–
"CCN(CC)CCn1cc(-c2ccnc(F)c2)c(-c2ccc(F)cc2)n1 [Example A-278, N,N-diethyl-3-(4-fluorophenyl)-4-(2-fluoro-4-pyridinyl)-1H-pyrazole-1-ethanamine]",62%,–
"CCN(CC)CCn1cc(-c2ccnc(NCc3ccc(F)cc3)c2)c(-c2ccc(F)cc2)n1 [Example A-279, 4-[1-[2-(diethylamino)ethyl]-3-(4-fluorophenyl)-1H-pyrazol-4-yl]-N-[(4-fluorophenyl)methyl]-2-pyridinamine]",64%,–
OCCNc1cc(-c2c[nH]nc2-c2ccc(F)cc2)ccn1 [Example A-280],15%,–
"Cn1cc(-c2ccnc(NCCO)c2)c(-c2ccc(F)cc2)n1 [Example A-281, 2-[[4-[3-(4-fluorophenyl)-1-methyl-1H-pyrazol-4-yl]-2-pyridinyl]amino]ethanol]",22%,–
"OCCCNc1cc(-c2c[nH]nc2-c2ccc(F)cc2)ccn1 [Example A-282, 3-[[4-(3-(4-fluorophenyl)-1H-pyrazol-4-yl]-2-pyridinyl]amino]-1-propanol]",30%,–
"OCCn1cc(-c2ccnc(NCc3ccc(F)cc3)c2)c(-c2ccc(F)cc2)n1 [Example A-283, 3 (or 5)-(4-fluorophenyl)-4-[2-[[(4-fluorophenyl)methyl]amino]-4-pyridinyl]-1H-pyrazole-1-ethanol]",−20%,"pIC50 [2, 3]: 6.10"
"CCN(CC)CCn1cc(-c2ccncc2)c(-c2ccc(F)cc2)n1 [Example A-284, N,N-diethyl-3-(4-fluorophenyl)-4-(4-pyridinyl)-1H-pyrazole-1-ethanamine]",–,"mLPS 8 h percent inhibition ([1]; dose not given, oral gavage): −1%"
"Fc1ccc(CNc2cc(-c3cn(CCN4CCOCC4)nc3-c3ccc(F)cc3)ccn2)cc1 [Example A-285, N-[(4-fluorophenyl)methyl]-4-[3-(4-fluorophenyl)-1-[2-(4-morpholinyl)ethyl]-1H-pyrazol-4-yl]-2-pyridinamine]",11%,"pIC50 [2, 3]: 6.75"
"Fc1ccc(-c2n[nH]c(NCCCN3CCOCC3)c2-c2ccncc2)cc1 [Example A-286, N-[5-(4-fluorophenyl)-4-(4-pyridinyl)-1H-pyrazol-3-yl]-4-morpholinepropanamine]",29%,–
"CN(C)CCCNc1[nH]nc(-c2ccc(F)cc2)c1-c1ccncc1 [Example A-287, N′-[5-(4-fluorophenyl)-4-(4-pyridinyl)-1H-pyrazol-3-yl]-N,N-dimethyl-1,3-propanediamine]",−24%,–
"C#CCNc1[nH]nc(-c2ccc(F)cc2)c1-c1ccncc1 [Example A-288, 5-(4-fluorophenyl)-N-2-propynyl-4-(4-pyridinyl)-1H-pyrazol-3-amine]",40%,–
"OCCn1cc(-c2ccnc(NCc3ccc(F)cc3)c2)c(-c2ccc(F)cc2)n1 [Example A-289, 3-(4-fluorophenyl)-4-[2-[[(4-fluorophenyl)methyl]amino]-4-pyridinyl]-1H-pyrazole-1-ethanol]",44%,"pIC50 [2, 3]: 6.85"
"OCCn1ncc(-c2ccnc(NCc3ccc(F)cc3)c2)c1-c1ccc(F)cc1 [Example A-290, 5-(4-fluorophenyl)-4-[2-[[(4-fluorophenyl)methyl]amino]-4-pyridinyl]-1H-pyrazole-1-ethanol]",4%,–
Fc1ccc(-c2n[nH]cc2-c2ccnc3ccccc23)cc1 [Example A-291],36%,–
"C#CCn1cc(-c2ccncc2)c(-c2ccc(F)cc2)n1 [Example A-294, 4-[3-(4-fluorophenyl)-1-(2-propynyl)-1H-pyrazol-4-yl]pyridine]",61%,–
"C#CCn1ncc(-c2ccncc2)c1-c1ccc(F)cc1 [Example A-295, 4-[5-(4-fluorophenyl)-1-(2-propynyl)-1H-pyrazol-4-yl]pyridine]",94%,–
"Clc1ccc(-c2n[nH]cc2-c2ccncc2)cc1Cl [Example A-297, 4-[3-(3,4-dichlorophenyl)-1H-pyrazol-4-yl]pyridine]",89%,–
Cc1ccc(F)cc1S(=O)(=O)NC(C)c1[nH]nc(-c2ccc(F)cc2)c1-c1ccncc1 (stereo not drawn) [Example B-0451],–,pIC50 (human p38 kinase alpha; [4]): 7.15; inhibition in vivo at 30 mg/kg ([1]; −5 h before LPS challenge): 42%
CC(C)C(=O)NC(C)c1[nH]nc(-c2ccc(F)cc2)c1-c1ccncc1 (stereo not drawn) [Example B-0532],–,"pIC50 (human p38 kinase alpha; [4]): 6.35; pIC50 ([2]; Homo sapiens, U-937, TNF production in human U937 cells stimulated with LPS, read-out: U937 Cell IC50): 6.00; inhibition in vivo at 30 mg/kg ([1]; −6 h before LPS challenge): 41%"
CNC(=O)NC(C)c1[nH]nc(-c2ccc(F)cc2)c1-c1ccncc1 (stereo not drawn) [Example B-0585],–,pIC50 (human p38 kinase alpha; [4]): 6.08; inhibition in vivo at 30 mg/kg ([1]; −6 h before LPS challenge): 50%
CC(=O)OCC(=O)NCCCc1[nH]nc(-c2ccc(F)cc2)c1-c1ccncc1 [Example B-1158],–,"P38 alpha kinase % inhib @ conc. (uM) (human p38 kinase alpha): 74% @; pIC50 ([2]; TNF production, human U937 cells stimulated with LPS, read-out: U937 Cell IC50): 6.17; Mouse LPS Model % TNF inhib @ dose @ predose time ([1]; −6 h before LPS challenge): 53% @ 30 mpk @ −6 h"
O=C(NCCCc1[nH]nc(-c2ccc(F)cc2)c1-c1ccncc1)c1ccccc1I [Example B-1159],–,P38 alpha kinase % inhib @ conc. (uM) (human p38 kinase alpha): 66.0% @; Mouse LPS Model % TNF inhib @ dose @ predose time ([1]; −6 h before LPS challenge): 60% @ 30 mpk @ −6 h
COCC(=O)N1CCC(c2[nH]nc(-c3ccc(F)cc3)c2-c2ccncc2)CC1 [Example B-1368],–,"pIC50 (human p38 kinase alpha; in vitro P38-alpha kinase): 7.51; inhibition in vivo at 30 mg/kg ([1]; predose time not printed (""@ -"")): 44%"
CS(=O)(=O)N1CCC(c2[nH]nc(-c3ccc(F)cc3)c2-c2ccncc2)CC1 [Example B-1376],–,pIC50 (human p38 kinase alpha; in vitro P38-alpha kinase): 8.05; Mouse LPS Model % TNF inhib @ dose @ predose time ([1]; −6 h before LPS challenge): 3.0% @ 30 mpk @ −6 H
